Entries after “also recorded” stand apart in the source; their conditions may differ. Like-named read-outs stand apart in the source and are kept apart here.
Legend:
HEK-293 cells [1] = test system: HEK-293 cells; design: method as in earlier work; settings: cited from earlier work; for IC50: HEK-293, 48 h of exposure
HEK-293 cells [2] = experiment: apoptosis and necrosis (Hoechst 33342 + propidium iodide staining); type: cell-based, human; settings: HEK-293, 72 h
Method: (§1) The type and extent of cell death in the control and treated cultures were evaluated using fluorochrome staining with Hoechst 33342 and propidium iodide to assess apoptosis and necrosis [88]. Dead cells were analyzed morphologically using a fluorescence microscope (Axiovert 200 M, Zeiss, Oberkochen, Germany). Cells with pink, fluorescent nuclei were considered necrotic, whereas cells with blue, fluorescent nuclei (fragmented and/or condensed chromatin) were classified as apoptotic.

HepG2 cells [3] = test system: HepG2 cells; design: method as in PMID 22116976; settings: HepG2, 20 µM (10.3 µg/mL); inhibited mitochondrial activity, membrane damage, increased ROS; cited from earlier work
renal cancer cells = test system: renal cancer cells; design: method as in PMID 34644207; settings: cited from earlier work
HepG2 cells [4] = test system: HepG2 cells; design: method as in PMID 32867402; settings: cited from earlier work
SH-SY5Y cells [5] = test system: SH-SY5Y cells; design: method as in earlier work; settings: 48 h exposure, cited from earlier work
SH-SY5Y cells [6] = settings: 72 h, Hoechst 33342/propidium iodide
Method: as §1

C[C@H]1c2cccc(O)c2C(=O)C2=C(O)[C@]3(O)C(=O)C(C(N)=O)=C(O)[C@@H](N(C)C)[C@@H]3[C@@H](O)[C@@H]21 [DOX, doxycycline hyclate]
effect on cell viability (HEK-293 cells [1]; HEK-293, 20 µg/mL): reduces the viability | induction of apoptosis (HEK-293 cells [1]; HEK-293, 20 µg/mL): does not induce apoptosis | IC50 (HEK-293 cells [1]; converted value in brackets): 6.05 µg/mL | IC50 (HEK-293 cells [1]; read-out: IC50): 11.8 µM | apoptotic and necrotic cell fractions (HEK-293 cells [2]): increased apoptotic and necrotic cell fractions; also recorded: significant increase in apoptotic and necrotic cells | effect on cell viability (HepG2 cells [3]): reduced cell viability | concentration that significantly inhibited protein synthesis and mitochondrial complex activity (renal cancer cells; cells of neoplastic origin): 5 µg/mL | concentration that induced apoptosis (renal cancer cells; renal cancer cells): 10 µg/mL | concentration causing about a 50% reduction in cell viability (HepG2 cells [4]; HepG2, converted value in brackets): 10.3 to 13.0 µg/mL | IC50 (HepG2 cells [4]; HepG2, read-out: concentration causing about a 50% reduction in cell viability): 20 to 25 µM | IC50 (SH-SY5Y cells [5]; converted value in brackets): 1.9 µg/mL | IC50 (SH-SY5Y cells [5]; read-out: IC50): 3.7 ± 0.1 µM | proportion of apoptotic and necrotic cells (SH-SY5Y cells [6]): increased the proportion of apoptotic and necrotic cells | proportion of apoptotic and necrotic cells (SH-SY5Y cells [6]; listed as doxycycline): marked increase in apoptotic and necrotic cell populations

From PMC12610721, “The Action of Cannabidiol on Doxycycline Cytotoxicity in Human Cells—In Vitro Study” (Molecules, 2025)
